Patent publication US20170334899A1, “AMINO-SUBSTITUTED ISOTHIAZOLES” (Bayer Pharma Aktiengesellschaft, priority 2014, published 2017)
“And” between values parts separate entries of the source, which are not always exact repeats. Equal entries are not always repeated.

How the values were obtained:
[1] = test system: HeLa; assay: Proliferation assay (crystal violet), HeLa; assay type: cell-based; conditions: Homo sapiens, HeLa, 96 h, HeLa cells; 4 days incubation; crystal violet staining; read-out: IC50 inhibition of proliferation, HeLa
Method in brief: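 Crystal violet proliferation readout, 4-day compound incubation, 0.001–10 μM, final DMSO 0.5%. Zero-point plate stained at time of dosing set as 0%, untreated control as 100%; IC50 via 4-parameter fit.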

[2] = biological target: T1, catalytic domain of human Bub1 (amino acids 704-1085) (Homo sapiens, UniProt O43683); assay: Bub1 kinase assay (TR-FRET); assay type: biochemical; conditions: 10 μM ATP, avg, read-out: Bub1 avg (IC50 [mol/l])
T1 construct: catalytic domain of human Bub1 (amino acids 704-1085); His6 (N); made in house; host or cells: insect cells (Hi5)
T1 sequence (O43683 704-1085): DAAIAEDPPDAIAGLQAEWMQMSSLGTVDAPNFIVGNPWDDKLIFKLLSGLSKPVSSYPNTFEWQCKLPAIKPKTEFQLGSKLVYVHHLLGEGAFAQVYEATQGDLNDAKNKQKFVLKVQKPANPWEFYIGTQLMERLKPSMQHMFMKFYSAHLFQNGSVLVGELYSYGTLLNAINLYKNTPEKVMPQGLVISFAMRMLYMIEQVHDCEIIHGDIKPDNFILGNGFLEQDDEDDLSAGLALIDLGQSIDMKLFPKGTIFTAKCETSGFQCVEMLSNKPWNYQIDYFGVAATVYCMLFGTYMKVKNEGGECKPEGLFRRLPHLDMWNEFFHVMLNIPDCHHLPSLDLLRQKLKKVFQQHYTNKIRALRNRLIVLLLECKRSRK
Method in brief: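 Readout is the 665/620 nm TR-FRET ratio from anti-phosphoserine antibody, Eu-labelled anti-mouse IgG and streptavidin-XL665, scaled between no-enzyme and uninhibited controls. Reaction: 1 μM biotinylated peptide, 10 μM ATP, 60 min, 22 °C, after 15 min compound preincubation with His6-Bub1 (704-1085, insect-expressed, ~200 ng/ml).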

Compound	IC50 [1] [µM]	IC50 [2]
Cc1nsc(Nc2cncc(C(F)(F)F)n2)c1C(=O)Nc1ccc(F)c(OC2CCN(CC(F)F)CC2)c1 [Example 268, N-(3-{[1-(2,2-difluoroethyl)piperidin-4-yl]oxy}-4-fluorophenyl)-3-methyl-5-{[6-(trifluoromethyl)pyrazin-2-yl]amino}-1,2-thiazole-4-carboxamide]	0.31	19 µM
Cc1nsc(Nc2cncc(C(F)(F)F)n2)c1C(=O)Nc1ccc(F)c(OC2CCN(CCF)CC2)c1 [Example 269, N-(4-fluoro-3-{[1-(2-fluoroethyl)piperidin-4-yl]oxy}phenyl)-3-methyl-5-{[6-(trifluoromethyl)pyrazin-2-yl]amino}-1,2-thiazole-4-carboxamide]	0.84	> 20 µM
Cc1nsc(Nc2cnc(C(F)(F)F)cn2)c1C(=O)Nc1ccc(C(=O)NC2CN(CC(F)(F)F)C2)cc1 [Example 270, 3-methyl-N-(4-{[1-(2,2,2-trifluoroethyl)azetidin-3-yl]carbamoyl}phenyl)-5-{[5-(trifluoromethyl)pyrazin-2-yl]amino}-1,2-thiazole-4-carboxamide]	> 10	> 20 µM
Cc1nsc(Nc2cnc(C(F)(F)F)cn2)c1C(=O)Nc1ccc(C(=O)NC2CN(CC(F)F)C2)cc1 [Example 271, N-(4-{[1-(2,2-difluoroethyl)azetidin-3-yl]carbamoyl}phenyl)-3-methyl-5-{[5-(trifluoromethyl)pyrazin-2-yl]amino}-1,2-thiazole-4-carboxamide]	9.4	> 20 µM
Cc1nsc(Nc2cncc(C(F)(F)F)n2)c1C(=O)Nc1ccc(C(=O)N2CCN(CC(F)(F)F)CC2)cc1 [Example 272, 3-methyl-N-(4-{[4-(2,2,2-trifluoroethyl)piperazin-1-yl]carbonyl}phenyl)-5-{[6-(trifluoromethyl)pyrazin-2-yl]amino}-1,2-thiazole-4-carboxamide]	5.8	> 20 µM
Cc1nsc(Nc2cncc(C(F)(F)F)n2)c1C(=O)Nc1ccc(C(=O)N2CCN(CC(F)F)CC2)cc1 [Example 273, N-(4-{[4-(2,2-difluoroethyl)piperazin-1-yl]carbonyl}phenyl)-3-methyl-5-{[6-(trifluoromethyl)pyrazin-2-yl]amino}-1,2-thiazole-4-carboxamide]	7.6	> 20 µM
Cc1nsc(Nc2cncc(C(F)(F)F)n2)c1C(=O)Nc1ccc(C(=O)N2CCN(CCF)CC2)cc1 [Example 274, N-(4-{[4-(2-fluoroethyl)piperazin-1-yl]carbonyl}phenyl)-3-methyl-5-{[6-(trifluoromethyl)pyrazin-2-yl]amino}-1,2-thiazole-4-carboxamide]	> 10	> 20 µM
CCN1CCN(C(=O)c2ccc(NC(=O)c3c(C)nsc3Nc3cncc(C(F)(F)F)n3)cc2)CC1 [Example 275, N-{4-[(4-ethylpiperazin-1-yl)carbonyl]phenyl}-3-methyl-5-{[6-(trifluoromethyl)pyrazin-2-yl]amino}-1,2-thiazole-4-carboxamide]	> 10	> 20 µM
Cc1nsc(Nc2cncc(C(F)(F)F)n2)c1C(=O)Nc1ccc(OCCO)nc1 [Example 276, N-[6-(2-hydroxyethoxy)pyridin-3-yl]-3-methyl-5-{[6-(trifluoromethyl)pyrazin-2-yl]amino}-1,2-thiazole-4-carboxamide]	4.9	> 20 µM
Cc1nsc(Nc2cnc(C(F)(F)F)cn2)c1C(=O)Nc1ccc(OCCO)nc1 [Example 277, N-[6-(2-hydroxyethoxy)pyridin-3-yl]-3-methyl-5-{[5-(trifluoromethyl)pyrazin-2-yl]amino}-1,2-thiazole-4-carboxamide]	3.2	> 20 µM and 18 µM
Cc1nsc(Nc2cncc(C(F)(F)F)n2)c1C(=O)Nc1ccc(OCCCO)nc1 [Example 278, N-[6-(3-hydroxypropoxy)pyridin-3-yl]-3-methyl-5-{[6-(trifluoromethyl)pyrazin-2-yl]amino}-1,2-thiazole-4-carboxamide]	2.6	> 20 µM
Cc1nsc(Nc2cnc(C(F)(F)F)cn2)c1C(=O)Nc1ccc(OCCCO)nc1 [Example 279, N-[6-(3-hydroxypropoxy)pyridin-3-yl]-3-methyl-5-{[5-(trifluoromethyl)pyrazin-2-yl]amino}-1,2-thiazole-4-carboxamide]	2.2	> 20 µM and 19 µM
Cc1nsc(Nc2cncc(C(F)(F)F)n2)c1C(=O)Nc1ccc(C(=O)NC2CN(CC(F)(F)F)C2)cc1 [Example 280, 3-methyl-N-(4-{[1-(2,2,2-trifluoroethyl)azetidin-3-yl]carbamoyl}phenyl)-5-{[6-(trifluoromethyl)pyrazin-2-yl]amino}-1,2-thiazole-4-carboxamide]	> 10	> 20 µM
Cc1nsc(Nc2cnc3ccccc3n2)c1C(=O)Nc1cccc(NS(=O)(=O)C2CCN(CC(F)(F)F)CC2)c1 [Example 281, 3-methyl-5-(quinoxalin-2-ylamino)-N-[3-({[1-(2,2,2-trifluoroethyl)piperidin-4-yl]sulfonyl}amino)phenyl]-1,2-thiazole-4-carboxamide]	8	> 20 µM
Cc1nsc(Nc2cnc3ccccc3n2)c1C(=O)Nc1cccc(NS(=O)(=O)C2CCN(CC(F)F)CC2)c1 [Example 282, N-[3-({[1-(2,2-difluoroethyl)piperidin-4-yl]sulfonyl}amino)phenyl]-3-methyl-5-(quinoxalin-2-ylamino)-1,2-thiazole-4-carboxamide]	6.2	> 20 µM
Cc1nsc(Nc2cnc3ccccc3n2)c1C(=O)Nc1cccc(NS(=O)(=O)C2CCN(CCC(F)(F)F)CC2)c1 [Example 283, 3-methyl-5-(quinoxalin-2-ylamino)-N-[3-({[1-(3,3,3-trifluoropropyl)piperidin-4-yl]sulfonyl}amino)phenyl]-1,2-thiazole-4-carboxamide]	8.4	> 20 µM
Cc1nsc(Nc2cnc(C(F)(F)F)cn2)c1C(=O)Nc1cccc(NC(=O)OC(C)(C)C)c1 [Example 284, 3-tert-butyl (3-{[(3-methyl-5-{[5-(trifluoromethyl)pyrazin-2-yl]amino}-1,2-thiazol-4-yl)carbonyl]amino}phenyl)carbamate]	0.54	> 20 µM
Cc1nsc(Nc2cnc3ccccc3n2)c1C(=O)Nc1cccc(NS(=O)(=O)C2CN(CC(F)(F)F)C2)c1 [Example 285, 3-methyl-5-(quinoxalin-2-ylamino)-N-[3-({[1-(2,2,2-trifluoroethyl)azetidin-3-yl]sulfonyl}amino)phenyl]-1,2-thiazole-4-carboxamide]	> 10	> 20 µM
Cc1nsc(Nc2cnc3ccccc3n2)c1C(=O)Nc1cccc(NS(=O)(=O)C2CN(CC(F)F)C2)c1 [Example 286, N-[3-({[1-(2,2-difluoroethyl)azetidin-3-yl]sulfonyl}amino)phenyl]-3-methyl-5-(quinoxalin-2-ylamino)-1,2-thiazole-4-carboxamide]	10	> 20 µM
Cc1nsc(Nc2cnc3ccccc3n2)c1C(=O)Nc1cccc(NS(=O)(=O)C2CN(CCF)C2)c1 [Example 287, N-[3-({[1-(2-fluoroethyl)azetidin-3-yl]sulfonyl}amino)phenyl]-3-methyl-5-(quinoxalin-2-ylamino)-1,2-thiazole-4-carboxamide]	9.9	> 20 µM
Cc1nsc(Nc2cnc3ccccc3n2)c1C(=O)Nc1cccc(NS(=O)(=O)C2CN(CCC(F)(F)F)C2)c1 [Example 288, 3-methyl-5-(quinoxalin-2-ylamino)-N-[3-({[1-(3,3,3-trifluoropropyl)azetidin-3-yl]sulfonyl}amino)phenyl]-1,2-thiazole-4-carboxamide]	9.9	> 20 µM
Cc1nsc(Nc2cnc3ccccc3n2)c1C(=O)Nc1cccc(NS(=O)(=O)C2CCN(CC(F)(F)F)C2)c1 (stereo not shown) [Example 289, 3-methyl-5-(quinoxalin-2-ylamino)-N-[3-({[1-(2,2,2-trifluoroethyl)pyrrolidin-3-yl]sulfonyl}amino)phenyl]-1,2-thiazole-4-carboxamide]	7.8	> 20 µM
Cc1nsc(Nc2cnc3ccccc3n2)c1C(=O)Nc1cccc(NS(=O)(=O)C2CCN(C(=O)OC(C)(C)C)C2)c1 (stereo not shown) [Example 290, tert-butyl 3-{[3-({[3-methyl-5-(quinoxalin-2-ylamino)-1,2-thiazol-4-yl]carbonyl}amino)phenyl]sulfamoyl} pyrrolidine-1-carboxylate]	8.8	> 20 µM
Cc1nsc(Nc2cnc3ccccc3n2)c1C(=O)Nc1cccc(NS(=O)(=O)C2CCCN(C(=O)OCc3ccccc3)C2)c1 (stereo not shown) [Example 291, benzyl 3-{[3-({[3-methyl-5-(quinoxalin-2-ylamino)-1,2-thiazol-4-yl]carbonyl}amino)phenyl]sulfamoyl} piperidine-1-carboxylate]	8.9	> 20 µM
Cc1nsc(Nc2cnc(C(F)(F)F)cn2)c1C(=O)Nc1ccc(OCCCNCC(F)(F)F)nc1 [Example 292, 3-methyl-N-(6-{3-[(2,2,2-trifluoroethyl)amino]propoxy}pyridin-3-yl)-5-{[5-(trifluoromethyl)pyrazin-2-yl]amino}-1,2-thiazole-4-carboxamide]	1.8	> 20 µM
Cc1nsc(Nc2cnc(C(F)(F)F)cn2)c1C(=O)Nc1ccc(OCCCNCC(F)F)nc1 [Example 293, N-(6-{3-[(2,2-difluoroethyl)amino]propoxy}pyridin-3-yl)-3-methyl-5-{[5-(trifluoromethyl)pyrazin-2-yl]amino}-1,2-thiazole-4-carboxamide]	5.3	> 20 µM
